Experiments:
rat GnRH receptor = target: T1, rat GnRH receptor (Rattus norvegicus, UniProt P30969); experiment: Radioligand binding, 125I-GnRH-A, rat pituitary membranes; set-up: membranes were prepared from rat pituitary; from tissue; host or cells: rat pituitary; details: read-out: rGnRH IC50
T1 sequence (P30969 1-327): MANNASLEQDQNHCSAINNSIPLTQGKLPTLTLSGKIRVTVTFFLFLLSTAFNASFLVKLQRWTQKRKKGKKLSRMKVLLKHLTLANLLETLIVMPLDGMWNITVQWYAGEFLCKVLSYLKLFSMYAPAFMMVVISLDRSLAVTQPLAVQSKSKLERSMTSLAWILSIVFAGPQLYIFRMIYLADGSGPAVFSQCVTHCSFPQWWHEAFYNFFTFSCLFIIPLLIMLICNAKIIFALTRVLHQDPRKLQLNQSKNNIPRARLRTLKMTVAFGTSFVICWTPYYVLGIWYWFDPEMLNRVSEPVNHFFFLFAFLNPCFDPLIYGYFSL
Experimental: All compounds were diluted in 1% DMSO (final assay concentration) in binding assay buffer. […] Reactions were terminated by rapid filtration onto 96-well Packard GF/C filters soaked in 0.1% polyethyleneimine. Filters were washed three times with PBS buffer, dried and counted on a Packard Topcount by liquid scintillation counting.
Assay conditions were identical for assessing compound activities at other species. […] IC50 values for control peptides and test compounds were calculated utilizing GraphPad Prism™ software.
The reaction mixture was vortexed and incubated for 1 min at room temperature. After one min, the mixture was vortexed and allowed to incubate for an additional minute. 2 ml of 0.5 M acetic acid/1% BSA was added to the reaction tube and the mixture was added to a C18 Sep-Pak cartridge. The cartridge was washed with subsequent washes of 5 ml H2O and 5 ml 0.5M acetic acid and then eluted with 5×1 ml of 60% CH3CN/40% 0.5M acetic acid. The eluate was diluted with 3× volume of HPLC buffer A (0.1% TFA in H2O) and loaded onto a C18 column. […] The radioactive fractions (750 ed/fraction) are collected into clean polypropylene tubes containing 100 μl of 10% BSA. Fractions were assessed for biological activity by radioligand binding.

human GnRH receptor = target: T2, human GnRH receptor (Homo sapiens, UniProt P30968); experiment: Radioligand binding, 125I-GnRH-A displacement, membranes of HEK 293 cells with human GnRH receptor; details: read-out: hGnRH IC50
T2 construct: expressed in transfected cells; host or cells: HEK 293 (hGnRH-R/293, from Dr. Stuart Sealfon)
T2 sequence (P30968 1-328): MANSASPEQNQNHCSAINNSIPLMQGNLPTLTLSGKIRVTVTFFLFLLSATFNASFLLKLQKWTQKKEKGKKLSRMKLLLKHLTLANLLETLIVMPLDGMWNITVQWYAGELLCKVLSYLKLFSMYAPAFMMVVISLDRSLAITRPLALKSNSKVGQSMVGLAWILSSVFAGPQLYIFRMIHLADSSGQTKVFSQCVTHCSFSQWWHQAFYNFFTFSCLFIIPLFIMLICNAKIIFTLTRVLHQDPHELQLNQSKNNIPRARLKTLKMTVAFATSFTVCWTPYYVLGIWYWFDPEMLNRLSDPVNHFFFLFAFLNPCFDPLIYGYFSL
Method in brief: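 After filtration and PBS washes, bound radioactivity was counted by scintillation and IC50 derived. Identical conditions applied for non-human receptors.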

mouse GnRH receptor = target: T3, mouse GnRH receptor (Mus musculus, UniProt Q01776); experiment: Radioligand binding, 125I-GnRH-A, 293 cells expressing mouse GnRH receptors; details: for IC50: read-out: mGnRH IC50; for inhibition at 10 µM: read-out: % Inhib. @ 10 uM mGnRH; for remaining activity at 10 µM: 1 h, substrate remaining, 10 uM compound, closer to zero = closer to 100% inhibition, read-out: S%R 10 uM mGnRHR
T3 construct: expressed in transfected cells; host or cells: 293 cells
T3 sequence (Q01776 1-327): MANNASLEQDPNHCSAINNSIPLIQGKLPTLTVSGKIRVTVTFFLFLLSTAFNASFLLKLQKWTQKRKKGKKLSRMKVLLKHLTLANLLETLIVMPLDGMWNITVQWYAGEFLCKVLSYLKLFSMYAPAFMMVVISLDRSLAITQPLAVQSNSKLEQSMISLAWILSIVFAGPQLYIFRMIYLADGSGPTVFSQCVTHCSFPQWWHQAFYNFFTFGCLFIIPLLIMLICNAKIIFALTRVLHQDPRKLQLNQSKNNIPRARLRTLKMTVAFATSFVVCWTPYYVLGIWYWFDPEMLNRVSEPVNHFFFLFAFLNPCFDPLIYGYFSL
Method in brief: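 Bound label captured on 0.1% polyethyleneimine-treated GF/C filters, washed three times with PBS, counted. IC50 derived; identical set-up for every species.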

[1] = Pharmacokinetic studies / bioavailability in rats; format: in vivo, rat; details: rat female
[2] = female, rat, plasma, po, 10 mg/kg, p.o. 10 mg/kg, 5 mg/ml solution in 10% DMSO 10% cremophor 80% saline

Row | SMILES | IC50 (rat GnRH receptor) [nM] | IC50 (human GnRH receptor) [nM] | also measured
1 | Cc1cc2c(cc1Cc1ccc(C(=O)NC3CCC(NC(=O)C(F)(F)F)CC3)o1)C(C)(C)CCC2(C)C (stereo not drawn) [Compound 110] | > 10000 | – | –
2 | Cc1cc2c(cc1Cc1ccc(C(=O)NCC3CCC(CNc4nccc(Cl)n4)CC3)o1)C(C)(C)CCC2(C)C (stereo not drawn) [Compound 93] | 5470 | 8000 | –
3 | Cc1cc2c(cc1Cc1ccc(C(=O)NCC3CCC(CNc4ncccn4)CC3)o1)C(C)(C)CCC2(C)C (stereo not drawn) [Compound 111] | 1740 | 630 | –
4 | Cc1cc2c(cc1Cc1ccc(C(=O)NCc3cccc(CNc4ncccn4)c3)o1)C(C)(C)CCC2(C)C [Compound 106] | 510 | 2000 | –
5 | Cc1cc2c(cc1Cc1ccc(C(=O)NC3CCC(N)CC3)o1)C(C)(C)CCC2(C)C (stereo not drawn) [Compound 112] | 7780 | – | –
6 | Cc1cnc(CNC(=O)c2ccc(Cc3c(C)cc(C)c(Br)c3C)o2)cn1 [Compound 80] | 5610 | – | –
7 | COc1cc(OC)c(NC(=O)c2ccc(Cc3cc4c(cc3C)C(C)(C)CC4(C)C)o2)c(OC)c1 [Compound 300] | – | 3.2 | IC50 (mouse GnRH receptor): 3.1 nM; Cmax [1, 2]: 360 nM; Tmax [1, 2]: 1 h; half-life ([1]; female, rat, plasma): 126 min; Fp.o. ([1]; 5 mg/ml solution in 10% DMSO 10% cremophor 80% saline): 10% (10 mg/kg)^10
8 | Cc1cc2c(cc1Cc1ccc(C(=O)N3CCC(CNc4nccc(NCC5CCCO5)n4)CC3)o1)C(C)(C)CCC2(C)C (stereo not drawn) [Compound 86.5] | 2050 | 2570 | –
9 | Cc1cc2c(cc1Cc1ccc(C(=O)NC[C@H]3CC[C@H](c4nc5ccccc5[nH]4)CC3)o1)C(C)(C)CCC2(C)C [Compound 85] | > 10000 | – | –
10 | Cc1cc(C)c(Cc2ccc(C(=O)NCc3cnc(C)cn3)o2)c(C)c1 [Compound 81] | 8080 | – | –
11 | Cc1cc2c(cc1Cc1ccc(C(=O)NCC3CCC(CNC(=O)C(F)(F)F)CC3)o1)C(C)(C)CCC2(C)C (stereo not drawn) [Compound 89] | 2730 | 250 | –
12 | Cc1cc2c(cc1Cc1ccc(C(=O)N3CCC(Nc4nccc(NCC5CCCO5)n4)CC3)o1)C(C)(C)CCC2(C)C (stereo not drawn) [Compound 94.2] | 1580 | 3000 | –
13 | Cc1cc2c(cc1Cc1ccc(C(=O)NCC3CCCC(CN)C3)o1)C(C)(C)CCC2(C)C (stereo not drawn) [Compound 127] | 910 | 510 | –
14 | Cc1cc2c(cc1Cc1ccc(C(=O)NCC3CCNCC3)o1)C(C)(C)CCC2(C)C [Compound 76] | 5300 | 880 | –
15 | COc1cc(C)c(Cc2ccc(C(=O)NCc3cnc(C)cn3)o2)cc1OC [Compound 84] | 770 | 8000 | –
16 | COCCCNC(=O)c1ccc(Cc2cc3c(cc2C)C(C)(C)CCC3(C)C)o1 [Compound 122] | 1260 | 730 | –
17 | Cc1cc2c(cc1Cc1ccc(C(=O)NCc3ccccc3-c3ccccc3)o1)C(C)(C)CCC2(C)C [Compound 67] | 1160 | – | –
18 | Cc1cc2c(cc1Cc1ccc(C(=O)NCC3CCC(CNCc4c(C)noc4C)CC3)o1)C(C)(C)CCC2(C)C (stereo not drawn) [Compound 90] | 1260 | 560 | –
19 | Cc1cc2c(cc1Cc1ccc(C(=O)NC3CCNC3)o1)C(C)(C)CCC2(C)C (stereo not drawn) [Compound 82] | 9200 | – | –
20 | Cc1cc2c(cc1Cc1ccc(C(=O)N3CCC(Nc4ccnc(NCC5CCCO5)n4)C3)o1)C(C)(C)CCC2(C)C (stereo not drawn) [Compound 94.5] | 4830 | – | –
21 | Cc1cc2c(cc1Cc1ccc(C(=O)N(CCC(c3ccccc3)c3ccccc3)Cc3ccccn3)o1)C(C)(C)CCC2(C)C [drawing 1554] | – | – | inhibition at 10 µM (mouse GnRH receptor): 50%
22 | COc1cccc(CCNC(=O)c2ccc(Cc3cc4c(cc3C)C(C)(C)CCC4(C)C)o2)c1 [Compound 495] | – | – | remaining activity at 10 µM (mouse GnRH receptor): 4%
23 | Cc1cc2c(cc1Cc1ccc(C(=O)N(Cc3cccc4ccccc34)C3CCN(Cc4ccccc4)C3)o1)C(C)(C)CCC2(C)C (stereo not drawn) [drawing 1563] | – | – | inhibition at 10 µM (mouse GnRH receptor): 57%
24 | Cc1cc2c(cc1Cc1ccc(C(=O)NCCCN3CCCCC3)o1)C(C)(C)CCC2(C)C [Compound 505] | – | – | remaining activity at 10 µM (mouse GnRH receptor): 7%
25 | Cc1cc2c(cc1Cc1ccc(C(=O)N(CCN(C)C)Cc3ccccc3[N+](=O)[O-])o1)C(C)(C)CCC2(C)C [Compound 590] | – | – | remaining activity at 10 µM (mouse GnRH receptor): -2%
26 | Cc1cc2c(cc1Cc1ccc(C(=O)N(Cc3ccoc3)C3CCN(Cc4ccccc4)C3)o1)C(C)(C)CCC2(C)C (stereo not drawn) [Compound 618] | – | – | remaining activity at 10 µM (mouse GnRH receptor): 9%
27 | CCCOCCNC(=O)c1ccc(Cc2cc3c(cc2C)C(C)(C)CCC3(C)C)o1 [Compound 669] | – | – | remaining activity at 10 µM (mouse GnRH receptor): -3%
28 | CCN(CC)CCCNC(=O)c1ccc(Cc2cc3c(cc2C)C(C)(C)CCC3(C)C)o1 [drawing 1244] | – | – | inhibition at 10 µM (mouse GnRH receptor): 100%
29 | COCCCNC(=O)c1ccc(Cc2cc3c(cc2C)C(C)(C)CCC3(C)C)o1 [drawing 1268] | – | – | inhibition at 10 µM (mouse GnRH receptor): 101%
30 | COC(CN(C)C(=O)c1ccc(Cc2cc3c(cc2C)C(C)(C)CCC3(C)C)o1)OC [drawing 1549] | – | – | inhibition at 10 µM (mouse GnRH receptor): 90%

Second part, led by results:

Row | IC50 (rat GnRH receptor) [nM] | IC50 (human GnRH receptor) [nM] | SMILES | also measured
31 | 3310 | 270 | Cc1cc2c(cc1Cc1ccc(C(=O)NCC3CCN(C(=O)OC(C)(C)C)CC3)o1)C(C)(C)CCC2(C)C [Compound 87] | –
32 | 750 | – | Cc1cc2c(cc1Cc1ccc(C(=O)NC[C@@H](O)c3ccccc3)o1)C(C)(C)CCC2(C)C [Compound 124] | –
33 | > 10000 | > 10000 | Cc1cc2c(cc1Cc1ccc(C(=O)Nc3ccc(NC(=O)OC(C)(C)C)cc3)o1)C(C)(C)CCC2(C)C [Compound 101] | –
34 | > 10000 | > 10000 | Cc1cc2c(cc1Cc1ccc(C(=O)Nc3ccc(S(=O)(=O)Nc4ccc(Cl)nn4)cc3)o1)C(C)(C)CCC2(C)C [Compound 107] | –
35 | 6000 | 585 | Cc1cc2c(cc1Cc1ccc(C(=O)NCC3CCCN(C(=O)OC(C)(C)C)C3)o1)C(C)(C)CCC2(C)C (stereo not drawn) [Compound 100] | –
36 | 1300 | – | Cc1cc2c(cc1Cc1ccc(C(=O)Nc3cccnc3)o1)C(C)(C)CCC2(C)C [Compound 78] | –
37 | 7000 | – | Cc1cc(NS(=O)(=O)c2ccc(NC(=O)c3ccc(Cc4cc5c(cc4C)C(C)(C)CCC5(C)C)o3)cc2)no1 [Compound 114] | –
38 | 2800 | 2000 | Cc1cc2c(cc1Cc1ccc(C(N)=O)o1)C(C)(C)CCC2(C)C [AXC- 06675] | –
39 | 1260 | – | Cc1cc2c(cc1Cc1ccc(C(=O)NCc3ccc(CNC(=O)C(F)(F)F)cc3)o1)C(C)(C)CCC2(C)C [Compound 104] | –
40 | 300 | 340 | Cc1cc2c(cc1Cc1ccc(C(=O)NCc3ccc(CN)cc3)o1)C(C)(C)CCC2(C)C [Compound 113] | –
41 | 2740 | – | Cc1cc2c(cc1Cc1ccc(C(=O)Nc3ccc(C(N)=O)cc3)o1)C(C)(C)CCC2(C)C [Compound 108] | –
42 | 510 | 8000 | CCc1cccc(CC)c1NC(=O)c1ccc(Cc2cc3c(cc2C)C(C)(C)CCC3(C)C)o1 [Compound 86] | –
43 | 1390 | – | COc1ccc(CNC(=O)c2ccc(Cc3cc4c(cc3C)C(C)(C)CCC4(C)C)o2)c2ccccc12 [Compound 129] | –
44 | – | 45 | COc1cc(NC(=O)c2ccc(Cc3cc4c(cc3C)C(C)(C)CCC4(C)C)o2)cc(OC)c1OC [Compound 301] | IC50 (mouse GnRH receptor): 38 nM
45 | 2340 | – | Cc1cc2c(cc1Cc1ccc(C(=O)NC3CCN(C(=O)OC(C)(C)C)C3)o1)C(C)(C)CCC2(C)C (stereo not drawn) [Compound 88] | –
